Reference: article PMC10648877, “Novel Substituted Azoloazines with Anticoagulant Activity” (International Journal of Molecular Sciences, 2023)

Key:
[1] = tested on: platelet-poor plasma (PPP); test: Activated partial thromboplastin time (APTT), rabbit blood coagulogram in vitro; assay type: biochemical; conditions: 100 μM, M ± m, n = 6;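 also: clotting time read chronometrically on a hemocoagulometer with commercial reagent kits, one of several coagulogram parameters alongside thrombin and prothrombin time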
Method: Test compounds and the reference drug were evaluated at a concentration of 100 μM. Effect on rabbit blood coagulograms in vitro was determined chronometrically with a SOLAR hemocoagulometer (Minsk, Belarus) using commercial kits (Technology-Standard, Barnaul, Russia) as per the manufacturer’s instructions. The following parameters were determined: activated partial thromboplastin time, thrombin time, and prothrombin time.

[2] = tested on: platelet-poor plasma (PPP); test: Prothrombin time (PT), rabbit blood coagulogram in vitro; conditions: 100 μM, M ± m, n = 6;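 also: clotting time read chronometrically on a hemocoagulometer using commercial reagent kits, with dabigatran etexilate at the same concentration as reference anticoagulant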
Method: The study was performed on platelet-poor plasma (PPP) stabilized with a 3.8% sodium citrate solution in a ratio of 9:1 according to the method described in [34]. Dabigatran etexilate (Boehringer Ingelheim Pharma GmbH and Co., Ingelheim am Rhein, Germany) was used as the reference drug. Test compounds and the reference drug were evaluated at a concentration of 100 μM. Effect on rabbit blood coagulograms in vitro was determined chronometrically with a SOLAR hemocoagulometer (Minsk, Belarus) using commercial kits (Technology-Standard, Barnaul, Russia) as per the manufacturer’s instructions. The following parameters were determined: activated partial thromboplastin time, thrombin time, and prothrombin time.

[3] = tested on: platelet-poor plasma (PPP); test: Thrombin time (TT), rabbit blood coagulogram in vitro; assay type: biochemical; conditions: rabbit blood in vitro, 100 μM; for TT: M ± m, n = 6

Row | Structure (SMILES) | APTT [1] [s] | PT [2] [s] | TT [3] [s] | increase of thrombin time relative to the control [3] [times] | melting point [°C] | anticoagulant activity / thrombin time prolongation compared with dabigatran etexilate [3]
1 | Cc1cc2nc3c4ccccc4n(CCN(C)C)c3nc2cc1C [Compound 1a] | 22.1 ± 5.9 | 14.5 ± 0.0 | 22.7 ± 2.0 |  |  | 
2 | CN(C)CCn1c2ccccc2c2nc3ccccc3nc21 [Compound 1b] | 26.8 ± 2.4 | 13.3 ± 0.2 | 23.9 ± 0.9 |  |  | 
3 | Cc1cc2nc3c4ccccc4n(CCN4CCOCC4)c3nc2cc1C [Compound 1c] | 27.1 ± 2.0 | 13.8 ± 0.4 | 26.2 ± 1.0 |  |  | 
4 | c1ccc2nc3c(nc2c1)c1ccccc1n3CCN1CCOCC1 [Compound 1d] | 18.2 ± 0.5 | 13.4 ± 0.3 | 26.7 ± 1.3 |  |  | 
5 | CCCn1c2ccccc2c2nc3cc(C)c(C)cc3nc21 [Compound 1e] | 29.6 ± 0.2 | 13.4 ± 0.1 | 38.0 ± 0.5 |  |  | 
6 | CCCn1c2ccccc2c2nc3ccccc3nc21 [Compound 1f] | 24.8 ± 4.2 | 13.1 ± 0.3 | 39.3 ± 1.8 | 3.5 |  | 
7 | CCCCn1c2ccccc2c2nc3cc(C)c(C)cc3nc21 [Compound 1g] | 30.6 ± 1.6 | 11.7 ± 0.4 | 34.1 ± 0.9 |  |  | 
8 | CCCCn1c2ccccc2c2nc3ccccc3nc21 [Compound 1h] | 25.7 ± 3.1 | 13.9 ± 0.1 | 35.6 ± 1.1 |  |  | 
9 | Cc1cc2nc3c4ccccc4n(CCCN(C)C)c3nc2cc1C [Compound 1i] | 32.1 ± 4.8 | 13.8 ± 0.3 | 21.9 ± 1.2 |  |  | 
10 | CN(C)CCCn1c2ccccc2c2nc3ccccc3nc21 [Compound 1j] | 32.5 ± 0.1 | 14.2 ± 0.4 | 22.0 ± 2.7 |  |  | 
11 | C1=C(c2ccccc2)n2ncnc2NC1c1ccccc1 (centres unmarked) [Compound 5a] | 26.3 ± 2.9 | 13.4 ± 0.1 | 43.8 ± 4.3 | 3.5 |  | 
12 | C1=C(c2ccccc2)n2ncnc2NC1c1cccs1 (centres unmarked) [Compound 5b] | 25.9 ± 2.2 | 15.8 ± 0.3 | 21.0 ± 0.0 |  |  | 
13 | C1=C(c2cccs2)n2ncnc2NC1c1ccccc1 (centres unmarked) [Compound 5c] | 27.6 ± 1.9 | 13.9 ± 0.2 | 41.4 ± 3.1 |  |  | 
14 | Nc1ccc(-c2cc(-c3ccc(N)cc3)n3ccnc3n2)cc1 [Compound 7a, 4,4′-(Imidazo[1,2-a]pyrimidine-5,7-diyl)dianiline] | 56.23 ± 5.05 | 11.62 ± 1.00 | 66.58 ± 4.64 |  | 169 to 171 | comparable to dabigatran etexilate in terms of activity
15 | Nc1ccc(-c2cc(-c3cccs3)n3ncnc3n2)cc1 [Compound 7b, 4-(7-(Thiophen-2-yl)-[1,2,4]triazolo[1,5-a]pyrimidin-5-yl)aniline] | 35.0 ± 0.2 | 13.6 ± 0.5 | 32.3 ± 0.9 |  | 211 to 214 | 
16 | CCOC(=O)C1=C(C)Nc2ncnn2C1c1ccccc1 (centres unmarked) [Compound 8c] | 34.6 ± 0.7 | 14.2 ± 0.1 | 34.7 ± 0.7 |  |  | 
17 | CCOC(=O)C1=C(C)Nc2ncnn2C1c1cccc(NC(=O)CN)c1 (centres unmarked) [Compound 10a, Ethyl 7-(3-(2-aminoacetamido)phenyl)-5-methyl-4,7-dihydro-[1,2,4]triazolo[1,5-a]pyrimi-dine-6-carboxylate] | 30.9 ± 0.6 | 13.2 ± 1.0 | 48.6 ± 22.4 | 3.5 | 270 to 272 | 
18 | CCOC(=O)C1=C(C)Nc2ncnn2C1c1ccc(NC(=O)CN)cc1 (centres unmarked) [Compound 10b, Ethyl 7-(4-(2-aminoacetamido)phenyl)-5-methyl-4,7-dihydro-[1,2,4]triazolo[1,5-a]pyrimi-dine-6-carboxy-late] | 30.6 ± 2.6 | 12.7 ± 0.2 | 27.1 ± 1.4 |  | 270 to 272 | 
19 | COC1C([N+](=O)[O-])=CNc2nc(C(F)(F)F)nn21 (centres unmarked) [Compound 12a, 2-Trifluoromethyl-6-nitro-7-methoxy-4,7-dihydro[1,5-a]pyrimidyl-4 guanidate] | 25.1 ± 0.8 | 14.2 ± 0.1 | 24.3 ± 3.5 |  |  | 
20 | O=[N+]([O-])C1=NNc2ncnn2C1O (centres unmarked) [Compound 14, 6-Nitro-7-hydroxy-4,7-dihydro-1,2,4-triazolo[5,1-c]triazinyl-4 guanidate] | 24.5 ± 0.8 | 14.5 ± 0.5 | 23.8 ± 3.5 |  |  | 
21 | N=C(N)Nc1nnc2ncc(SCc3ccccc3)n2n1 [Compound 15a] | 34.0 ± 0.6 | 14.5 ± 0.3 | 32.8 ± 0.8 |  |  | 
22 | CCCCCCCCCCCCSc1cnc2nnc(NC(=N)N)nn12 [Compound 15b] | 34.1 ± 0.5 | 14.0 ± 0.2 | 33.7 ± 0.6 |  |  | 
23 | N=C(N)Nc1nnc2nnc(SCc3cccc(F)c3)n2n1 [Compound 16] | 26.3 ± 1.1 | 14.1 ± 0.3 | 25.9 ± 1.6 |  | 235 to 237 | 
24 | CCCCCCCCSc1nnc2nnc(NC(=N)N)nn12 [Compound 16a, 6-Guanidino-3-octylthio-[1,2,4]triazolo[4,3-b][1,2,4,5]tetrazine] | 29.1 ± 1.4 | 12.2 ± 0.2 | 34.3 ± 4.7 |  | > 260 | 
25 | N=C(N)Nc1nnc2nnc(SC3CCCC3)n2n1 [Compound 16b, 6-Guanidino-3-cyclopentylthio-[1,2,4]triazolo[4,3-b][1,2,4,5]tetrazine] | 24.7 ± 1.2 | 13.9 ± 0.5 | 22.7 ± 1.7 |  | 252 to 253 | 
